Test results published in patent publication US11332500B2, “Heterotandem bicyclic peptide complexes” (BicycleTx Limited, priority 2019, dated 2022).
*1 amine or outer side, *2 acyl side, *3 side chain or, on linkers, in order; H or OH if unused. Where a SMILES comes first, the peptide text is derived from it. Bridges are numbered along the chain shown (N, C = ends). Roman numbers before positions name the chains, in order. [ ]: non-standard residue; d: D form. TATA = O=C(CC[*:1])N1CN(C(=O)CC[*:2])CN(C(=O)CC[*:3])C1; X2 = O=C(CCOCCOCCOCCOCCOCCn1cc(CCC(=O)[*:2])nn1)[*:1]; hArg = N=C(N)NCCCC[C@H](N)C(=O)O; tBuAla = CC(C)(C)C[C@H](N)C(=O)O; Nle = CCCC[C@H](N)C(=O)O

Biological target: T1, CD137 (Homo sapiens, UniProt Q07011)
T1 construct: host or cells: Jurkat reporter cells from the Promega kit, co-cultured with tumour cells (NCI-H292, PC3 or RKO)
T1 sequence (Q07011 24-255): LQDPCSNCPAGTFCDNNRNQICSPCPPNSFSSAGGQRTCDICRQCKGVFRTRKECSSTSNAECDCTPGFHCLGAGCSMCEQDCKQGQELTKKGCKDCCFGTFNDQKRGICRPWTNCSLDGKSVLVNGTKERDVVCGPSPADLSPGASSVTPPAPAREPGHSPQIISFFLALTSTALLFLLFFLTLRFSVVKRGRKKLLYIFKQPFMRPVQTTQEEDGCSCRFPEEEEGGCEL
Test: CD137 reporter assay co-culture with RKO tumour cells (PD-L1/CD137 heterotandems)
Format: cell-based
Conditions: Jurkat CD137 reporter cells co-cultured with RKO (PD-L1), 6 h; read-out: Fold Induction over background
Experimental: Culture medium, referred to as R1 media, is prepared by adding 1% FBS to RPMI-1640 (component of Promega kit CS196005). Serial dilutions of test articles in R1 are prepared in a sterile 96 well-plate. Add 25 μL per well of test articles or R1 (as a background control) to designated wells in a white cell culture plate. Tumour cells* are harvested and resuspended at a concentration of 400,000 cells/mL in R1 media. Twenty five (25) μL/well of tumour cells are added to the white cell culture plate. Jurkat cells (Promega kit CS196005, 0.5 mL) are thawed in the water bath and then added to 5 ml pre-warmed R1 media. Twenty five (25) μL/well of Jurkat cells are then added to the white cell culture plate. Incubate the cells and test articles for 6 h at 37° C., 5% CO2. At the end of 6 h, add 75 μL/well Bio-Glo™ reagent (Promega) and incubate for 10 min before reading luminescence in a plate reader (Clariostar, BMG). The fold change relative to cells alone (Jurkat cells+Cell line used in co-culture) is calculated and plotted in GraphPad Prism as log(agonist) vs response to determine EC50 (nM) and Fold Induction over background (Max).
The tumour cell type used in co-culture for EphA2 is PC3. The tumour cell type used in co-culture for PD-L1 is RKO.
A summary of the fold induction induced by PD-L1/CD137 heterotandem peptides in the CD137 reporter coculture assay with RKO cells is shown in Table 3.

CCCC[C@@H]1NC(=O)[C@H](Cc2ccc(O)cc2)NC(=O)[C@@H]2CCCN2C(=O)[C@H](CC(=O)O)NC(=O)[C@H](C)NC(=O)[C@H](Cc2ccccc2)NC(=O)[C@@H]2CSCCC(=O)N3CN(CN(C3)C(=O)CCSC[C@@H](C(=O)N[C@@H](C)C(N)=O)NC1=O)C(=O)CCSC[C@H](NC(C)=O)C(=O)N[C@@H](CC(C)(C)C)C(=O)N1CCC[C@H]1C(=O)N[C@@H](CCC(=O)O)C(=O)N[C@H](CCCCNC(=O)CCc1cn(CCOCCOCCOCCOCCOCCC(=O)NCCCC[C@@H]3NC(=O)[C@H](CC(C)C)NC(=O)[C@H](CCCCNC(C)=O)NC(=O)[C@H](CCC(N)=O)NC(=O)[C@@H]4CSCCC(=O)N5CN(CN(C5)C(=O)CCSC[C@@H](C(=O)N5CCC[C@H]5C(=O)N[C@@H](CO)C(=O)N[C@@H](Cc5c[nH]cn5)C(N)=O)NC(=O)[C@H](CC(C)C)NC3=O)C(=O)CCSC[C@H](NC(=O)[C@H](CCCCNC(=N)N)NC(=O)[C@H](CC(=O)O)NC(C)=O)C(=O)N[C@@H](CO)C(=O)N[C@@H](C)C(=O)NCC(=O)N[C@@H](Cc3c[nH]c5ccccc35)C(=O)N[C@@H](CC(C)C)C(=O)N[C@@H]([C@@H](C)O)C(=O)N[C@@H](CCSC)C(=O)N4)nn1)C(=O)N1CCC[C@H]1C(=O)N[C@@H](Cc1ccc(O)cc1)C(=O)N2 [BCY12242] (I: Ac-D[hArg]CSAGWLTMCQK(Ac)LKLCPSH-NH2 / II: Ac-C[tBuAla]PE[dK]PYCFADPY[Nle]CA-NH2; linker I:3-I:11-I:17, II:1-II:8-II:15 via TATA; linker I:15-II:5 via X2)
fold induction: 13
